As usually defined, the IC50 is the concentration that inhibits the measured activity by half.

Several values for one entry are separate records, joined by “and”; a condition that tells them apart may be missing. Identical values can stand only once.

In one assay the test system is NCI-H358 (K-Ras G12C). Nature of the assay: CellTiter-Glo cell viability assay, NCI-H358. It is filed as cell-based, human. Particulars: Homo sapiens, NCI-H358, Table 5; read-out: H358 Cell Viability assay data (K-Ras G12C, IC50). The procedure, abridged:
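Compounds dispensed directly onto plated NCI-H358 cells; plates equilibrated to room temperature on day 5 before luminescence read-out. Signal normalized to mean DMSO control (%) and fitted by four-parameter logistic.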
In general terms: ATP-based viability assays read luminescence as a measure of living cells.
As to `CCn1c(-c2cccnc2[C@H](C)OC)c2c3cc(ccc31)-c1cccc(c1)C[C@H](NC(=O)[C@H](C(C)C)N(C)C(=O)C1(F)CCN(C(=O)C#CC(C)(C)N(C)C)CC1)C(=O)N1CCC[C@H](N1)C(=O)OCC(C)(C)C2` (atropisomer, axis not shown) [Compound A699], the half-maximal inhibitory concentration (IC50) is under 0.01 µM.

Still in this assay, the particulars now being: Homo sapiens, NCI-H358, read-out: H358 Cell Viability assay data (K-Ras G12C, IC50, uM), Table 5.
Consider `CCn1c(-c2cccnc2[C@H](C)OC)c2c3cc(ccc31)-c1csc(n1)C[C@H](NC(=O)[C@H](C(C)C)N(C)C(=O)N1CC(N(C)C(=O)C#CC(C)(C)N3CCC3)C1)C(=O)N1CCC[C@H](N1)C(=O)OCC(C)(C)C2` [Compound A379], for which the IC50 is under 0.01 µM. Still for that read-out and setting: to `CCn1c(-c2cccnc2COC)c2c3cc(ccc31)-c1cc(C)cc(c1)C[C@H](NC(=O)[C@H](C(C)C)N(C)C(=O)[C@H]1CCN(C(=O)C#CCN(C)C)C1)C(=O)N1CCC[C@H](N1)C(=O)OCC(C)(C)C2` [Compound A157] belongs under 0.01 µM; to `CCn1c(-c2cccnc2C(C)OC)c2c3cc(ccc31)-c1cccc(c1)CC(NC(=O)C(C(C)C)N1CCC3(CCN(C(=O)C#CC(C)(C)N4CCC4)C3)C1=O)C(=O)N1CCCC(N1)C(=O)OCC(C)(C)C2` (stereo not shown) [Compound A365], under 0.01 µM. Same read-out and setting: for `C=CC(=O)Nc1ccc(C(=O)N(C)[C@H](C(=O)N[C@H]2Cc3cc(O)cc(c3)-c3ccc4c(c3)c(c(-c3cccnc3[C@H](C)OC)n4CC)CC(C)(C)COC(=O)[C@@H]3CCCN(N3)C2=O)C(C)C)cn1` [Compound A250] the value was under 0.01 µM. For `C=CC(=O)N1CC[C@H](C(=O)N(C)[C@H](C(=O)N[C@H]2Cc3cc(O)cc(c3)-c3ccc4c(c3)c(c(-c3cccnc3)n4[C@H](C)C#N)CC(C)(C)COC(=O)[C@@H]3CCCN(N3)C2=O)C(C)C)C1` [A193], the IC50 was in the range of 0.1 to 1 µM.

As to `C=CC(=O)N1CC[C@H](C(=O)N(C)[C@H](C(=O)N[C@H]2Cc3cc(O)cc(c3)-c3ccc4c(c3)c(c(-c3cc(CN(C)C)cnc3[C@H](C)OC)n4CC)CC(C)(C)COC(=O)[C@@H]3CCCN(N3)C2=O)C(C)C)C1` (single isomer, unassigned) [Compound A537], the half-maximal inhibitory concentration (IC50) was under 0.01 µM. Same read-out and setting: to `CCn1c(-c2cccnc2[C@H](C)OC)c2c3cc(ccc31)-c1cccc(c1)C[C@H](NC(=O)[C@H](C(C)C)N1CC[C@]3(CCN(C(=O)C#C[C@H]4COCCN4C)C3)C1=O)C(=O)N1CCC[C@H](N1)C(=O)OCC(C)(C)C2` (atropisomer, axis not shown) [Compound A592] belongs under 0.01 µM.

As for `C=CC(=O)N1CC[C@H](C(=O)N(C)[C@H](C(=O)N[C@H]2Cc3cc(CF)cc(c3)-c3ccc4c(c3)c(c(-c3cccnc3[C@H](C)OC)n4CC(F)(F)F)CC(C)(C)COC(=O)[C@@H]3CCCN(N3)C2=O)C(C)C)C1` [Compound A659], the IC50 is under 0.01 µM. Regarding `C=CC(=O)N1CCO[C@H]2CCN(C(=O)N(C)[C@H](C(=O)N[C@H]3Cc4nc(cs4)-c4ccc5c(c4)c(c(-c4cccnc4[C@H](C)OC)n5CC)CC(C)(C)COC(=O)[C@@H]4CCCN(N4)C3=O)C(C)C)C[C@@H]21` (atropisomer, axis not shown) [Compound A609], the IC50 is under 0.01 µM. Still for that read-out and setting: to `C=CC(=O)N1CCN(C(=O)N(C)[C@H](C(=O)N[C@H]2Cc3nc(cs3)-c3ccc4c(c3)c(c(-c3cccnc3[C@H](C)OC)n4CC(F)(F)F)CC(C)(C)COC(=O)[C@@H]3CCCN(N3)C2=O)C(C)C)CC1` [Compound A464] belongs under 0.01 µM; to `CCn1c(-c2cccnc2[C@H](C)OC)c2c3cc(ccc31)-c1csc(n1)C[C@H](NC(=O)[C@H](C(C)C)N(C)C(=O)N(C)C1CN(C(=O)/C=C/C(C)(C)O)C1)C(=O)N1CCC[C@H](N1)C(=O)OCC(C)(C)C2` [Compound A350], 0.1 to 1 µM.

`CCn1c(-c2cccnc2[C@H](C)OC)c2c3cc(ccc31)-c1cccc(c1)C[C@H](NC(=O)[C@H](C(C)C)N(C)C(=O)[C@H]1CCN(C(=O)C#CC(C)(C)N3CCC(F)(F)C3)C1)C(=O)N1CCC[C@H](N1)C(=O)OCC(C)(C)C2` (relative stereo) [Compound A325]: the IC50 is 0.1 to 1 µM.

The assay is the same for the next values; noted with them: Table 5; read-out: H358 Cell Viability assay data (K-Ras G12C, IC50).
Turning to `C=CC(=O)N1CC[C@H](C(=O)N(C)[C@H](C(=O)N[C@H]2Cc3cc(O)cc(c3)-c3ccc4c(c3)c(c(-c3nccnc3COC)n4CC)CC(C)(C)COC(=O)[C@@H]3CCCN(N3)C2=O)C(C)C)C1` [Compound A85], the IC50 fell in the range of 0.1 to 1 µM. The same measure, in the same setting: for “(2S)-N-[(8S,14S,20P)-22-ethyl-21-{4-[(1S)-1-methoxyethyl]pyridin-3-yl}-18,18-dimethyl-9,15-dioxo-16-oxa-10,22,28-triazapentacyclo[18.5.2.1^2,^6.1^10,^14.0^23,^27]nonacosa-1(26),2,4,6(29),20,23(27),24-heptaen-8-yl]-3-methyl-2-{N-methyl-1-[(3S)-1-(prop-2-enoyl)pyrrolidin-3-yl]formamido}butanamide [Compound A115]” the value was 0.01 to 0.1 µM. Same read-out and setting: for `C=CC(=O)N1CC[C@H](C(=O)N(C)[C@H](C(=O)N[C@H]2Cc3cc(O)cc(c3)-c3ccc4c(c3)c(c(-c3ccc5cc(CN(C)C)n(C)c5c3)n4CC)CC(C)(C)COC(=O)[C@@H]3CCCN(N3)C2=O)C(C)C)C1` [Compound A35] the value was 0.01 to 0.1 µM; for `CCn1c(-c2ccccc2COC)c2c3cc(ccc31)-c1cc(O)cc(c1)C[C@H](NC(=O)[C@H](C(C)C)N(C)C(=O)[C@H]1CCN(C(=O)/C=C/CN(C)C)C1)C(=O)N1CCC[C@H](N1)C(=O)OCC(C)(C)C2` [Compound A79], 0.01 to 0.1 µM; for `C=CC(=O)N1CC[C@H](C(=O)N(C)[C@H](C(=O)N[C@H]2Cc3cc(O)cc(c3)-c3ccc4c(c3)c(c(-c3cccnc3COC)n4CC)CC(C)(C)COC(=O)[C@@H]3CCCN(N3)C2=O)C(C)C)C1` [Compound A16], 0.01 to 0.1 µM. As to `C=CC(=O)N1C[C@H](C)[C@H](C(=O)N(C)[C@H](C(=O)N[C@H]2Cc3cc(O)cc(c3)-c3ccc4c(c3)c(c(-c3cccnc3COC)n4CC)CC(C)(C)COC(=O)[C@@H]3CCCN(N3)C2=O)C2CCCC2)C1` [Compound A57], the IC50 is under 0.01 µM. The same measure, in the same setting: to `C=CC(=O)N1CCC(C(=O)N(C)[C@H](C(=O)N[C@H]2Cc3cc(O)cc(c3)-c3ccc4c(c3)c(c(-c3ccccc3CCOC)n4CC)CC(C)(C)COC(=O)[C@@H]3CCCN(N3)C2=O)C(C)C)CC1` [Compound A14] belongs 0.1 to 1 µM. `C=CC(=O)N1CCC(F)(C(=O)N(C)[C@H](C(=O)N[C@H]2Cc3cc(O)cc(c3)-c3ccc4c(c3)c(c(-c3ccccc3CN(C)C)n4CC)CC(C)(C)COC(=O)[C@@H]3CCCN(N3)C2=O)C(C)C)CC1` [Compound A20]: the concentration for half-maximal inhibition (IC50) lay in the range of 0.01 to 0.1 µM. The same measure, in the same setting: for `C=CC(=O)N1CCC(F)(C(=O)N(C)[C@H](C(=O)N[C@H]2Cc3cc(O)cc(c3)-c3ccc4c(c3)c(c(-c3ccccc3CCOC)n4CC)CC(C)(C)COC(=O)[C@@H]3CCCN(N3)C2=O)C(C)C)CC1` [Compound A11] the value was 0.1 to 1 µM; for `C=CC(=O)N1CC(C(=O)N(C)[C@H](C(=O)N[C@H]2Cc3cc(O)cc(c3)-c3ccc4c(c3)c(c(-c3cccnc3COC)n4CC)CC(C)(C)COC(=O)[C@@H]3CCCN(N3)C2=O)C(C)C)C1` [Compound A70], 0.01 to 0.1 µM; for `CCn1c(-c2cccnc2[C@H](C)OC)c2c3cc(ccc31)-c1csc(n1)C[C@H](NC(=O)[C@H](C(C)C)N(C)C(=O)N1C[C@@H]3CN(C(=O)C#CC(C)(C)N(C)C)CC[C@@H]31)C(=O)N1CCC[C@H](N1)C(=O)OCC(C)(C)C2` (atropisomer, axis not shown) [Compound A625], 0.01 to 0.1 µM. Same read-out and setting: to `CCn1c(-c2cccnc2COC)c2c3cc(ccc31)-c1cc(O)cc(c1)C[C@H](NC(=O)[C@H](C(C)C)N(C)C(=O)c1ccc(NC(=O)/C=C/CN(C)C)cn1)C(=O)N1CCC[C@H](N1)C(=O)OCC(C)(C)C2` [Compound A67, (2E)-4-(dimethylamino)-N-(6-{[(1S)-1-{[(8S,14S)-22-ethyl-4-hydroxy-21-[2-(methoxymethyl)pyridin-3-yl]-18,18-dimethyl-9,15-dioxo-16-oxa-10,22,28-triazapentacyclo[18.5.2.1^2,^6.1^10,^14.0^23,^27]nonacosa-1(26),2,4,6(29),20,23(27),24-heptaen-8-yl]carbamoyl}-2-methylpropyl](methyl)carbamoyl}pyridin-3-yl)but-2-enamide] belongs 0.1 to 1 µM; to `C=CC(=O)N1CC[C@H](C(=O)N(C)[C@H](C(=O)N[C@H]2Cc3cc(O)cc(c3)-c3ccc4c(c3)c(c(-c3cncnc3)n4CC)CC(C)(C)COC(=O)[C@@H]3CCCN(N3)C2=O)C(C)C)C1` [Compound A61], 0.01 to 0.1 µM; to “(2S)-N-[(7S,13S)-21-ethyl-20-[2-(methoxymethyl)pyridin-3-yl]-17,17-dimethyl-8,14-dioxo-15-oxa-4-thia-9,21,27,28-tetraazapentacyclo[17.5.2.1^2,^5.1^9,^13.0^22,^26]octacosa-1(25),2,5(28),19,22(26),23-hexaen-7-yl]-3-methyl-2-{N-methyl-1-[(3S)-1-(prop-2-enoyl)pyrrolidin-3-yl]formamido}butanamide [Compound A194]”, < 0.01 µM and 0.01 to 0.1 µM. On the same count and under the same terms, for `C=CC(=O)N1CC[C@H](C(=O)N(C)[C@H](C(=O)N[C@H]2Cc3cc(O)cc(c3)-c3ccc4c(c3)c(c(-c3cccnc3COC)n4C)CC(C)(C)COC(=O)[C@@H]3CCCN(N3)C2=O)C(C)C)C1` [Compound A66] the value was 0.01 to 0.1 µM. With `C=CC(=O)N1CC[C@H](C(=O)N(C)[C@H](C(=O)N[C@H]2Cc3cc(O)cc(c3)-c3ccc4c(c3)c(c(-c3cnn(C)c3)n4CC)CC(C)(C)COC(=O)[C@@H]3CCCN(N3)C2=O)C(C)C)C1` [Compound A99], the IC50 is 0.01 to 0.1 µM. Consider `C=CC(=O)N1CC[C@H](C(=O)N(C)[C@H](C(=O)N[C@H]2Cc3cc(O)cc(c3)-c3ccc4c(c3)c(c(-c3ccccc3[C@@H](C)OC)n4CC)CC(C)(C)COC(=O)[C@@H]3CCCN(N3)C2=O)C(C)C)C1` [Compound A29], for which the IC50 lay in the range of 0.1 to 1 µM.

Staying with this assay, now noted: read-out: H358 Cell Viability assay data (K-Ras G12C, IC50); Table 5.
As to `C=CC(=O)Nc1ccc(C(=O)N(C)[C@H](C(=O)N[C@H]2Cc3cc(O)cc(c3)-c3ccc4c(c3)c(c(-c3cccnc3[C@H](C)OC)n4CC)CC(C)(C)COC(=O)[C@@H]3CCCN(N3)C2=O)C(C)C)cn1` [Compound A336], the IC50 was under 0.01 µM.
